Data: the supplement of paper PMC5908809

Columns and labels:
[1] = tested on: SNK-6 (IL-2 2.5 ng/mL); assay: drug sensitivity score (DSS) (DSS units); higher = more sensitive; extreme values may be limits of the assay; settings: 72 h
[2] = tested on: NK-92 (IL-2 2.5 ng/mL); assay: as above; settings: 72 h
[3] = tested on: normal primary NK cells, pool 3 (3 donors) (IL-2 2.5 ng/mL); assay: as above; settings: 72 h
[4] = tested on: normal primary NK cells, pool 1 (3 donors) (IL-2 2.5 ng/mL); assay: as above; settings: 72 h
[5] = tested on: NK-YS (IL-2 2.5 ng/mL); assay: as above; settings: 72 h
[6] = tested on: IMC-1 (IL-2 20 ng/mL); assay: as above; settings: 72 h
[7] = tested on: YT (IL-2 2.5 ng/mL); assay: as above; settings: 72 h
[8] = tested on: NKL (IL-2 2.5 ng/mL); assay: as above; settings: 72 h
[9] = tested on: DERL-7 (IL-2 2.5 ng/mL); assay: as above; settings: 72 h
[10] = tested on: normal primary NK cells, pool 1 (3 donors), resting (IL-2 0 ng/mL); assay: as above; settings: 72 h
[11] = tested on: KAI3 (IL-2 2.5 ng/mL); assay: as above; settings: 72 h
[12] = tested on: normal primary NK cells, pool 2 (3 donors) (IL-2 2.5 ng/mL); assay: as above; settings: 72 h
[13] = tested on: KHYG-1 (IL-2 2.5 ng/mL); assay: as above; settings: 72 h
[14] = tested on: normal NK cells expanded with K562-aAPC; assay: as above; settings: 72 h; IL-2 2.5 ng/mL
Description: (§1)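 Drug sensitivity and resistance testing on K562-aAPC-expanded normal NK cells: 5 concentrations (10-fold steps over a 10,000-fold range), 72 h at 37 °C, viability by CellTiter-Glo normalised to DMSO and benzethonium chloride controls; DSS from the fitted curve.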

[15] = tested on: SNK-6 (IL-2 2.5 ng/mL); assay: percent inhibition of viability; higher = more inhibition; settings: 72 h
[16] = tested on: NK-92 (IL-2 2.5 ng/mL); assay: as above; settings: 72 h
[17] = tested on: normal primary NK cells, pool 3 (3 donors) (IL-2 2.5 ng/mL); assay: as above; settings: 72 h
[18] = tested on: normal primary NK cells, pool 1 (3 donors) (IL-2 2.5 ng/mL); assay: as above; settings: 72 h
[19] = tested on: NK-YS (IL-2 2.5 ng/mL); assay: as above; settings: 72 h
[20] = tested on: IMC-1 (IL-2 20 ng/mL); assay: as above; settings: 72 h
[21] = tested on: YT (IL-2 2.5 ng/mL); assay: as above; settings: 72 h
[22] = tested on: NKL (IL-2 2.5 ng/mL); assay: as above; settings: 72 h
[23] = tested on: DERL-7 (IL-2 2.5 ng/mL); assay: as above; settings: 72 h
[24] = tested on: normal primary NK cells, pool 1 (3 donors), resting (IL-2 0 ng/mL); assay: as above; settings: 72 h
[25] = tested on: KAI3 (IL-2 2.5 ng/mL); assay: as above; settings: 72 h
[26] = tested on: normal primary NK cells, pool 2 (3 donors) (IL-2 2.5 ng/mL); assay: as above; settings: 72 h
[27] = tested on: KHYG-1 (IL-2 2.5 ng/mL); assay: as above; settings: 72 h
[28] = tested on: normal NK cells expanded with K562-aAPC; assay: as above; settings: 72 h, IL-2 2.5 ng/mL
Description: as §1

Cc1cc(Nc2ncc(Cl)c(Nc3ccccc3S(=O)(=O)C(C)C)n2)c(OC(C)C)cc1C1CCNCC1 [Ceritinib] (max concentration tested 2500 nM)
Settings	drug sensitivity score
[1]	0
[2]	0
[3]	0
[4]	3.33
[5]	0.89
[6]	0.89
[7]	0
[8]	0.89
[9]	0.92
[10]	5.8
[11]	0
[12]	0.23
[13]	0
[14]	0.89

percent inhibition of viability [%]
Settings	0.25 nM	2.5 nM	25 nM	250 nM	2500 nM
[15]	10.1	11.8	6.18	-2.76	-12.8
[16]	7.74	-3.66	-9.06	-14.7	-17.8
[17]	-5.64	-4.98	-6.68	-5.81	0.68
[18]	-2.74	-3.9	0.34	4.28	50.2
[19]	-0.73	-3.11	-3.16	-7.84	-1.32
[20]	-2.25	-2.84	-3.12	-7.73	-4.42
[21]	2.57	-0.77	-0.72	-2.37	3.15
[22]	-3.75	-12.6	-15.7	-9.51	-1.79
[23]	3.63	5.92	-4.52	1.56	21.8
[24]	-7.32	-13.8	7.94	12	69
[25]	0.47	4.56	-2.83	3.89	7.4
[26]	-8.08	-2.52	-12.5	-0.57	15.4
[27]	0.86	-4.67	-2.14	-5.38	-4.91
[28]	-2.81	-5.61	-7.59	-0.13	-2.11

C[C@@H](Oc1cc(-c2cnn(C3CCNCC3)c2)cnc1N)c1c(Cl)ccc(F)c1Cl [Crizotinib] (max concentration tested 1000 nM)
Settings	drug sensitivity score
[1]	0
[2]	3.72
[3]	0.4
[4]	2.41
[5]	0.12
[6]	0
[7]	1.25
[8]	3.75
[9]	0.81
[10]	1.99
[11]	1.25
[12]	0.49
[13]	0.95
[14]	0.44

percent inhibition of viability [%]
Settings	0.1 nM	1 nM	10 nM	100 nM	1000 nM
[15]	-16.1	-28	-15	-17.9	-4.35
[16]	-12.7	0.5	-4.15	16.4	34.7
[17]	-11.7	-8.52	6.99	-0.76	18
[18]	-4.24	-0.87	8.61	7.22	32.6
[19]	-6.03	-14.8	-8.66	-7.59	15.5
[20]	-4.84	-8.42	-0.95	5.13	7.41
[21]	-0.11	-5.24	-1.87	2.08	25.1
[22]	-3.16	-3.23	-5.42	9.67	43.3
[23]	-0.63	5.41	-1.8	-2.42	25.2
[24]	-6.8	-15.6	-1.32	0.53	39.1
[25]	-4.43	-13.2	-10.6	-0.67	30.1
[26]	-7.13	-11.6	-1.57	-2.22	20.3
[27]	-1.4	-6.18	0.71	2.28	20.6
[28]	-7.86	-6.31	-9.93	-2.46	19.7

CN(C)/N=N/c1[nH]cnc1C(N)=O [Dacarbazine] (max concentration tested 10000 nM)
Settings	drug sensitivity score
[1]	10.7
[2]	0
[3]	0
[4]	0
[5]	2.15
[6]	0
[7]	3.43
[8]	0
[9]	0
[10]	0
[11]	0
[12]	0
[13]	1.97
[14]	0

percent inhibition of viability [%]
Settings	1 nM	10 nM	100 nM	1000 nM	10000 nM
[15]	16.4	16	31.9	30.4	22.6
[16]	-11.1	-14.5	-3.48	-12.7	-1.95
[17]	-14.1	-10.7	-2.39	-8.2	3.49
[18]	1.02	-5.15	0.2	-11.5	-4.15
[19]	-2.92	-5.5	2.66	4.39	31.8
[20]	-2.15	-3.53	1.36	1.13	5.24
[21]	-0.72	-1.38	3.7	1.57	59.6
[22]	-15.6	-10.8	-1.7	0.09	-2.93
[23]	-2.46	-7.71	-9.81	-6.85	-5.73
[24]	-7.07	-16.7	-8.98	-35.2	-22.9
[25]	-5.96	-7.58	-5.99	-9.63	10.8
[26]	-10.3	-8.69	-2.46	-11.8	-2.6
[27]	-1.18	-4.93	-1.85	0.07	39.6
[28]	-6.74	-2.31	-4.77	1.92	10.3
